Reference: patent US20050100888A1, “Methods based on hormone dependency of primary cancer cells” (Imperial College Innovations Limited, priority 2002, published 2005)

Legend:
estrogen receptor (ER) [1] = target: T1, estrogen receptor (ER) (Homo sapiens, UniProt P03372); details: infected MCF7 cells
T1 sequence (P03372 1-595): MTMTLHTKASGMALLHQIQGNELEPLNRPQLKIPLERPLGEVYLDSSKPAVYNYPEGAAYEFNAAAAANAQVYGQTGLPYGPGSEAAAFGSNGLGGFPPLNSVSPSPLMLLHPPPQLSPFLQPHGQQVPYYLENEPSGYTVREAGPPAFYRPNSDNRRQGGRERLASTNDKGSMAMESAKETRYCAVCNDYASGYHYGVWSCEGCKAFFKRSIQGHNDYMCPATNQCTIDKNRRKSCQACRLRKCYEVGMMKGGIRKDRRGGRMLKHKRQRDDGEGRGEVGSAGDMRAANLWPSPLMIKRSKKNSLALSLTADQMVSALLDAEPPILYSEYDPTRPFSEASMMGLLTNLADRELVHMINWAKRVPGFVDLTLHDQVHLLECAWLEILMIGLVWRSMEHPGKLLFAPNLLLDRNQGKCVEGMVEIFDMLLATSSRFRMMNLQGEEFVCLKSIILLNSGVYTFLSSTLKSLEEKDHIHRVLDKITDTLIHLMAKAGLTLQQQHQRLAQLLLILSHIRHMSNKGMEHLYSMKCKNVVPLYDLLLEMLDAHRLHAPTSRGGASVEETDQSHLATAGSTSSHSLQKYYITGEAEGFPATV

estrogen receptor (ER) [2] = assay: viral ER reporter in ER negative breast cancer cell lines; assay type: cell-based, human; details: virus 100:1
Experimental: FIG. 3: Reporter activity in variety of estrogen receptor alpha positive (MCF-7, T47-D, ZR75-1, BT474) and negative (Cal-51, SkBr3, and MDA-MB231 cell lines). For each figure, the order is as follows: (1) refers to the no ligand control.
For adenovirus infections, cell lines were plated in 96 wells at the given density in phenol red free DMEM supplemented with 5% double-stripped serum (PR/5% DSS). The following day cells were exposed to the given quantity of plaque forming units per cell (multiplicity of infection, MOI) in PR/SF medium. This was incubated at 37° C. for 1 hour after which the media was replaced by PR free/5% DSS containing the ligands.
Reporter Gene Assay 48 hours after virus infection, 20 ul of 20% Triton in PBS was added to each well and incubated at RT for 10 minutes. […] (CRPG) made up in TBS at a concentration of 8 mg/ml was then added to the wells and the plate was incubated, foil-wrapped, at 37° C. until a colour change was observed. Plate readings were taken at a wavelength of 547 nm.
We went on to test the virus reporter in a variety of ER positive and ER negative cell lines. Again 0.5×10^5 cells were infected with 100 virus per cell (100:1). Using the GFP virus it was evident that the infectability of the cell lines was variable. […]

C[C@]12CC[C@@H]3c4ccc(O)cc4C[C@@H](CCCCCCCCC[S+]([O-])CCCC(F)(F)C(F)(F)F)[C@H]3[C@@H]1CC[C@@H]2O (some centres unmarked) [ICI 182,780]
β-gal expression by X-gal staining (estrogen receptor (ER) [1]): completely abolished even basal levels of staining
effect on ERE driven β-gal reporter / baseline activity (estrogen receptor (ER) [2]): did not have a significant effect on the baseline activity
